# Laboratory results published in PMC9176790 (PLoS Pathogens, 2022).
# Biological target: RaaR (RSp0912) (Ralstonia pseudosolanacearum, UniProt Q8XRE2)
# Assay: biochemical
# RaaR (RSp0912), sequence (Q8XRE2 1-313 limits assumed): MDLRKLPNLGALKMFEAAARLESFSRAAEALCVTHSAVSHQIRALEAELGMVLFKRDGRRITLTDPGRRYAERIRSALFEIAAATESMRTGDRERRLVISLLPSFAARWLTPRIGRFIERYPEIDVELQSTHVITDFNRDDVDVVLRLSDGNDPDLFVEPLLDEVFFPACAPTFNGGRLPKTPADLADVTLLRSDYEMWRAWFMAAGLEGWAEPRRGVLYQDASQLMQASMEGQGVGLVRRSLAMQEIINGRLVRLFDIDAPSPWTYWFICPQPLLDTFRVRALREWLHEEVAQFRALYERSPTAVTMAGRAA
structure (smiles),measurement,value
Nc1ccccc1C(=O)O [anthranilic acid],Kd,3.63 µM
